In PubChem BioAssay (NCI):
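Each compound was tested at five concentrations against cells in 96-well plates for 48 hours. At the TGI there is no net growth.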

Columns and labels:
Test in all cases: NCI tumour cell line growth inhibition, 48 h
DU-145 prostate = test system: DU-145 prostate
LOX IMVI melanoma = test system: LOX IMVI melanoma
KM12 colon = test system: KM12 colon
HOP-92 NSCLC = test system: HOP-92 NSCLC
ACHN renal = test system: ACHN renal
A549 NSCLC = test system: A549 NSCLC
786-0 renal = test system: 786-0 renal
UACC-257 melanoma = test system: UACC-257 melanoma
OVCAR-5 ovarian = test system: OVCAR-5 ovarian
NCI-H226 lung = test system: NCI-H226 lung
U251 CNS = test system: U251 CNS
MCF7 breast = test system: MCF7 breast
NCI-H23 lung = test system: NCI-H23 lung
NCI-H522 lung = test system: NCI-H522 lung
HCT-116 colon = test system: HCT-116 colon
MOLT-4 leukemia = test system: MOLT-4 leukemia
T-47D breast = test system: T-47D breast
HOP-62 NSCLC = test system: HOP-62 NSCLC
PC-3 prostate = test system: PC-3 prostate
CAKI-1 renal = test system: CAKI-1 renal
A498 renal = test system: A498 renal
TK-10 renal = test system: TK-10 renal
OVCAR-8 ovarian = test system: OVCAR-8 ovarian
HS 578T breast = test system: HS 578T breast
CCRF-CEM leukemia = test system: CCRF-CEM leukemia
OVCAR-4 ovarian = test system: OVCAR-4 ovarian
SNB-19 CNS = test system: SNB-19 CNS
BT-549 breast = test system: BT-549 breast
SNB-75 CNS = test system: SNB-75 CNS
SK-MEL-2 melanoma = test system: SK-MEL-2 melanoma
SN12C renal = test system: SN12C renal
SW-620 colon = test system: SW-620 colon
COLO 205 colon = test system: COLO 205 colon
SF-295 CNS = test system: SF-295 CNS
SF-539 CNS = test system: SF-539 CNS
K-562 leukemia = test system: K-562 leukemia
EKVX NSCLC = test system: EKVX NSCLC
IGROV1 ovarian = test system: IGROV1 ovarian
MDA-MB-231 breast = test system: MDA-MB-231 breast
SK-OV-3 ovarian = test system: SK-OV-3 ovarian
SF-268 CNS = test system: SF-268 CNS
HL-60(TB) leukemia = test system: HL-60(TB) leukemia
RXF 393 renal = test system: RXF 393 renal
OVCAR-3 ovarian = test system: OVCAR-3 ovarian
HCT-15 colon = test system: HCT-15 colon
MDA-MB-435 = test system: MDA-MB-435
M14 melanoma = test system: M14 melanoma
NCI-H460 lung = test system: NCI-H460 lung
UO-31 renal = test system: UO-31 renal
HT29 colon = test system: HT29 colon
RPMI-8226 leukemia = test system: RPMI-8226 leukemia
HCC-2998 colon = test system: HCC-2998 colon
NCI/ADR-RES ovarian = test system: NCI/ADR-RES ovarian
UACC-62 melanoma = test system: UACC-62 melanoma

SMILES: CC1=C(C(=O)NCCc2ccccc2)CC(C(=O)NCCc2ccccc2)=C(C)N1
- TGI (DU-145 prostate): > 100 µM
- TGI (LOX IMVI melanoma): > 100 µM
- TGI (KM12 colon): > 100 µM
- TGI (HOP-92 NSCLC): > 100 µM
- TGI (ACHN renal): > 100 µM
- TGI (A549 NSCLC): > 100 µM
- TGI (786-0 renal): > 100 µM
- TGI (UACC-257 melanoma): > 100 µM
- TGI (OVCAR-5 ovarian): > 100 µM
- TGI (NCI-H226 lung): > 100 µM
- TGI (U251 CNS): > 100 µM
- TGI (MCF7 breast): > 100 µM
- TGI (NCI-H23 lung): > 100 µM
- TGI (NCI-H522 lung): > 100 µM
- TGI (HCT-116 colon): > 100 µM
- TGI (MOLT-4 leukemia): > 100 µM
- TGI (T-47D breast): > 100 µM
- TGI (HOP-62 NSCLC): > 100 µM
- TGI (PC-3 prostate): > 100 µM
- TGI (CAKI-1 renal): > 100 µM
- TGI (A498 renal): > 100 µM
- TGI (TK-10 renal): > 100 µM
- TGI (OVCAR-8 ovarian): > 100 µM
- TGI (HS 578T breast): > 100 µM
- TGI (CCRF-CEM leukemia): 76.5 µM
- TGI (OVCAR-4 ovarian): > 100 µM
- TGI (SNB-19 CNS): 72.5 µM
- TGI (BT-549 breast): > 100 µM
- TGI (SNB-75 CNS): 69.2 µM
- TGI (SK-MEL-2 melanoma): > 100 µM
- TGI (SN12C renal): > 100 µM
- TGI (SW-620 colon): > 100 µM
- TGI (COLO 205 colon): > 100 µM
- TGI (SF-295 CNS): > 100 µM
- TGI (SF-539 CNS): > 100 µM
- TGI (K-562 leukemia): > 100 µM
- TGI (EKVX NSCLC): > 100 µM
- TGI (IGROV1 ovarian): > 100 µM
- TGI (MDA-MB-231 breast): > 100 µM
- TGI (SK-OV-3 ovarian): > 100 µM
- TGI (SF-268 CNS): > 100 µM
- TGI (HL-60(TB) leukemia): > 100 µM
- TGI (RXF 393 renal): > 100 µM
- TGI (OVCAR-3 ovarian): > 100 µM
- TGI (HCT-15 colon): > 100 µM
- TGI (MDA-MB-435): > 100 µM
- TGI (M14 melanoma): > 100 µM
- TGI (NCI-H460 lung): > 100 µM
- TGI (UO-31 renal): > 100 µM
- TGI (HT29 colon): > 100 µM
- TGI (RPMI-8226 leukemia): > 100 µM
- TGI (HCC-2998 colon): > 100 µM
- TGI (NCI/ADR-RES ovarian): > 100 µM
- TGI (UACC-62 melanoma): > 100 µM
